Test results reported in patent US20100285149A1, “NOVEL TETRAHYDROPYRIDOTHIOPHENES” (priority 2006, published 2010).

What was measured:
[1] = system: RKO colon adenocarcinoma cells (RKOp27) arrested by the expression of ectopic p27Kip1; assay: Alamar Blue cell viability assay, RKO p27 cells arrested by Ponasterone A induced p27Kip1; type: cell-based; details: Homo sapiens, anti-proliferative/cytotoxic activity, 72 hours incubation, 10 μM Ponasterone A
Protocol: To determine the cell cycle specific mode of action, subclones of RKO colon adenocarcinoma cells (RKOp27 or RKOp21 as described by Schmidt et al. in Oncogene 19, 2423-2429; 2000) are seeded into 96 well flat bottom plates at a density of 15000 cells per well in a volume of 50 μl per well in DMEM growth medium with 10% FCS containing 10 μM Ponasterone A. 24 hours after seeding the 50 μl each of the compound dilutions in DMEM medium are added into each well of the 96 Well plate. Each compound dilution is tested as quadruplicates. Wells containing untreated control cells are filled with 50 μl DMEM medium containing 1% DMSO. The cells are then incubated with the substances for 72 hours at 37° C. in a humidified athmosphere containing 5% carbon dioxide. To determine the viability of the cells, 10 μl of an Alamar Blue solution (Biosource) are added and the fluorescence was measured at an extinction of 544 nm and an emission of 590 nm. For the calculation of the cell viability the emission value from untreated cells is set as 100% viability and the emission rates of treated cells are set in relation to the values of untreated cells. Viabilities are expressed as % values. Viability is compared of proliferating cells grown in the absence of the inducer Ponasterone A, versus viability of cells arrested by the expression of ectopic p27Kip1 induced by Ponasterone A.
(§1) Representative IC50 values for anti-proliferation/cytotoxicity determined in the mentioned assays follow from the following table A, in which the numbers of the compound correspond to the numbers of the examples.

[2] = system: RKO (RKOp27) human colon adenocarcinoma cells; assay: Alamar Blue cell viability assay, proliferating (uninduced) RKO p27 cells; type: cell-based; details: anti-proliferative/cytotoxic activity, 72 hours incubation, no Ponasterone A
Protocol: The anti-proliferative/cytotoxic activity of the compounds described herein, can be tested on subclones of RKO (RKOp27) human colon adenocarcinoma cells (Schmidt et al., Oncogene 19, 2423-2429; 2000) using the Alamar Blue cell viability assay (described in O'Brien et al. Eur J Biochem 267, 5421-5426, 2000). The compounds are dissolved as 20 mM solutions in dimethylsulfoxide (DMSO) and subsequently diluted in semi-logarithmic steps. DMSO dilutions are further diluted 1:100 into Dulbecco's modified Eagle's medium (DMEM) containing 10% fetal calf serum to a final concentration twice as much as the final concentration in the test. RKO subclones are seeded into 96 well flat bottom plates at a density of 5000 cells per well in a volume of 50 μl per well. 24 hours after seeding the 50 μl each of the compound dilutions in DMEM medium are added into each well of the 96 Well plate. Each compound dilution is tested as quadruplicates. Wells containing untreated control cells are filled with 50 μl DMEM medium containing 1% DMSO. The cells are then incubated with the substances for 72 hours at 37° C. in a hunified atmosphere containing 5% carbon dioxide. To determine the viability of the cells, 10 μl of an Alamar Blue solution (Biosource) are added and the fluorescence is measured at an extinction of 544 nm and an emission of 590 nm. For the calculation of the cell viability the emission value from untreated cells is set as 100% viability and the emission rates of treated cells are set in relation to the values of untreated cells. Viabilities are expressed as % values.
The corresponding IC50 values of the compounds for anti-proliferative/cytotoxic activity are determined from the concentration-effect curves.
as §1

SMILES	IC50 [1] [nM]	IC50 [2] [nM]
COc1cccc(CCC(=O)Nc2sc3c(c2C#N)CCN(C(=O)NCCc2cn(C)cn2)C3)c1 [Example 71, 3-Cyano-2-[3-(3-methoxy-phenyl)-propanoylamino]-4,7-dihydro-5H-thieno[2,3-c]pyridine-6-carboxylic acid [2-(1-methyl-1H-imidazol-4-yl)-ethyl]-amide]	≥ 100000	500 to 2000
CCNC(=O)N1CCc2c(sc(NC(=O)CCc3ccco3)c2C#N)C1 [Example 109, 3-Cyano-2-(3-furan-2-yl-propanoylamino)-4,7-dihydro-5H-thieno[2,3-c]pyridine-6-carboxylic acid ethylamide]	≥ 100000	≤ 500
COc1ccccc1CCC(=O)Nc1sc2c(c1C#N)CCN(C(=O)NCCc1cn(C)cn1)C2 [Example 105, 3-Cyano-2-[3-(2-methoxy-phenyl)-propanoylamino]-4,7-dihydro-5H-thieno[2,3-c]pyridine-6-carboxylic acid [2-(1-methyl-1H-imidazol-4-yl)-ethyl]-amide]	≥ 100000	≤ 500
CCNC(=O)N1CCc2c(sc(NC(=O)CCc3ccccc3)c2C#N)C1 [Example 115, 3-Cyano-2-(3-phenyl-propanoylamino)-4,7-dihydro-5H-thieno[2,3-c]pyridine-6-carboxylic acid ethylamide]	≥ 100000	≤ 500
CCNC(=O)N1CCc2c(sc(NC(=O)C3CC3c3ccccc3OC)c2C#N)C1 (racemic) [Example 116, 3-Cyano-2-({1-[(RS)-2-(2-methoxy-phenyl)-cyclopropyl]-methanoyl}-amino)-4,7-dihydro-5H-thieno[2,3-c]pyridine-6-carboxylic acid ethylamide]	≥ 100000	≤ 500
CCNC(=O)N1CCc2c(sc(NC(=O)CC(C)c3ccccc3OC)c2C#N)C1 (stereo not drawn) [Example 111, 3-Cyano-2-[3-(2-methoxy-phenyl)-butanoylamino]-4,7-dihydro-5H-thieno[2,3-c]pyridine-6-carboxylic acid ethylamide]	≥ 60000	≤ 500
CCNC(=O)N1CCc2c(sc(NC(=O)CCc3cc(C)ccc3OC)c2C#N)C1 [Example 107, 3-Cyano-2-[3-(2-methoxy-5-methyl-phenyl)-propanoylamino]-4,7-dihydro-5H-thieno[2,3-c]pyridine-6-carboxylic acid ethylamide]	≥ 100000	≤ 500
CCNC(=O)N1CCc2c(sc(NC(=O)C3CC3c3cccc(OC)c3)c2C#N)C1 (racemic) [Example 117, 3-Cyano-2-({1-[(RS)-2-(3-methoxy-phenyl)-cyclopropyl]-methanoyl}-amino)-4,7-dihydro-5H-thieno[2,3-c]pyridine-6-carboxylic acid ethylamide]	≥ 60000	≤ 500
CCNC(=O)N1CCc2c(sc(NC(=O)CCc3ccccc3OCC)c2C#N)C1 [Example 106, 3-Cyano-2-[3-(2-ethoxy-phenyl)-propanoylamino]-4,7-dihydro-5H-thieno[2,3-c]pyridine-6-carboxylic acid ethylamide]	≥ 100000	≤ 500
CCNC(=O)N1CCc2c(sc(NC(=O)CC(C)c3ccccc3)c2C#N)C1 (stereo not drawn) [Example 114, 3-Cyano-2-(3-phenyl-butanoylamino)-4,7-dihydro-5H-thieno[2,3-c]pyridine-6-carboxylic acid ethylamide]	≥ 100000	≤ 500
CCNC(=O)N1CCc2c(sc(NC(=O)CCC3CCCCC3)c2C#N)C1 [Example 118, 3-Cyano-2-(3-cyclohexyl-propanoylamino)-4,7-dihydro-5H-thieno[2,3-c]pyridine-6-carboxylic acid ethylamide]	≥ 100000	≤ 500
CCNC(=O)N1CCc2c(sc(NC(=O)CC(C)c3cccc(OC)c3)c2C#N)C1 (stereo not drawn) [Example 110, 3-Cyano-2-[3-(3-methoxy-phenyl)-butanoylamino]-4,7-dihydro-5H-thieno[2,3-c]pyridine-6-carboxylic acid ethylamide]	≥ 100000	≤ 500
CCNC(=O)N1CCc2c(sc(NC(=O)CCc3cccc(OC)c3)c2C#N)C1 [Example 108, 3-Cyano-2-[3-(3-methoxy-phenyl)-propanoylamino]-4,7-dihydro-5H-thieno[2,3-c]pyridine-6-carboxylic acid ethylamide]	≥ 100000	≤ 500
CCNC(=O)N1CCc2c(sc(NC(=O)CCc3ccccc3OC)c2C#N)C1 [Example 113, 3-Cyano-2-[3-(2-methoxy-phenyl)-propanoylamino]-4,7-dihydro-5H-thieno[2,3-c]pyridine-6-carboxylic acid ethylamide]	≥ 100000	≤ 500
CCNC(=O)N1CCc2c(sc(NC(=O)CC(C)c3ccccc3OCC)c2C#N)C1 (stereo not drawn) [Example 112, 3-Cyano-2-[3-(2-ethoxy-phenyl)-butanoylamino]-4,7-dihydro-5H-thieno[2,3-c]pyridine-6-carboxylic acid ethylamide]	≥ 100000	≤ 500
